Measurements from patent US11999727B2 (Tango Therapeutics, Inc., priority 2020, dated 2024).
pIC50: −log10 of the molar value. Read-outs that look alike come from different tables or passages of the source.

Legend:
PRMT5 [1] = target: T1, PRMT5 (Homo sapiens, UniProt O14744); experiment: PRMT5 biochemical IC50 assay with SAM as cofactor; conditions: PRMT5, SAM as cofactor; read-out: SAM IC50
T1 construct: purchased Viva (custom protein)

[2] = tested on: HAP1 MTAP-intact cell line; experiment: SDMA in-cell western assay, HAP1 MTAP-intact; assay type: cell-based; conditions: HAP1 MTAP-intact, read-out: MTAP HAP1 intact IC50
How it was run: (§1)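 Readout: in-cell western detection of SDMA. Cells: HAP1 expressing endogenous MTAP and an MTAP-null HAP1 counterpart. Output: IC50.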

PRMT5 [3] = target: T1, PRMT5; experiment: PRMT5 biochemical IC50 assay with no cofactor; conditions: PRMT5, no cofactor
Description: Table 1 indicates IC50 values (μM) against PRMT5 for exemplary compounds in the presence of SAM as cofactor, with no cofactor, and with MTA as cofactor, respectively (columns 4-6). […] Ki values can be calculated from the IC50 values as described in the Examples section. As detailed in the Examples section, for the assay performed in the presence of SAM, IC50=Ki×1.5 (Ki=IC50/1.5).

[4] = tested on: HAP1 MTAP-deleted cell line; experiment: SDMA in-cell western assay, HAP1 MTAP-deleted; assay type: cell-based; conditions: for pIC50: HAP1 MTAP-deleted
How it was run: as §1

[5] = tested on: HAP1 MTAP-deleted cell line; experiment: Viability assay, MTAP-deleted cell line; assay type: cell-based; conditions: read-out: HAP1 MTAP deleted viability
Description: Table 1 additionally indicates IC50 values in a viability assay for the MTAP-deleted cell line (column 10), indicating the effect of treatment with compound on cell survival.

PRMT5 [6] = target: T1, PRMT5; experiment: PRMT5 biochemical IC50 assay with MTA as cofactor; conditions: PRMT5, MTA as cofactor; read-out: MTA IC50
[7] = Homo sapiens, HAP1, SDMA in-cell western
[8] = Homo sapiens, HAP1, SDMA in-cell western, read-out: HAP1 MTAP deleted IC50
[9] = IC50 ratio HAP1 MTAP-intact vs HAP1 MTAP-deleted, SDMA in-cell western
[10] = Homo sapiens, HAP1, viability assay, MTAP-deleted cell line
[11] = read-out: No Cofactor/ rel IC50
[12] = Homo sapiens, HAP1, SDMA in-cell western, read-out: HAP 1 MTAP deleted IC50
[13] = IC50 ratio HAP1 MTAP-intact / HAP1 MTAP-deleted, SDMA in-cell western

T1 sequence (O14744 whole entry): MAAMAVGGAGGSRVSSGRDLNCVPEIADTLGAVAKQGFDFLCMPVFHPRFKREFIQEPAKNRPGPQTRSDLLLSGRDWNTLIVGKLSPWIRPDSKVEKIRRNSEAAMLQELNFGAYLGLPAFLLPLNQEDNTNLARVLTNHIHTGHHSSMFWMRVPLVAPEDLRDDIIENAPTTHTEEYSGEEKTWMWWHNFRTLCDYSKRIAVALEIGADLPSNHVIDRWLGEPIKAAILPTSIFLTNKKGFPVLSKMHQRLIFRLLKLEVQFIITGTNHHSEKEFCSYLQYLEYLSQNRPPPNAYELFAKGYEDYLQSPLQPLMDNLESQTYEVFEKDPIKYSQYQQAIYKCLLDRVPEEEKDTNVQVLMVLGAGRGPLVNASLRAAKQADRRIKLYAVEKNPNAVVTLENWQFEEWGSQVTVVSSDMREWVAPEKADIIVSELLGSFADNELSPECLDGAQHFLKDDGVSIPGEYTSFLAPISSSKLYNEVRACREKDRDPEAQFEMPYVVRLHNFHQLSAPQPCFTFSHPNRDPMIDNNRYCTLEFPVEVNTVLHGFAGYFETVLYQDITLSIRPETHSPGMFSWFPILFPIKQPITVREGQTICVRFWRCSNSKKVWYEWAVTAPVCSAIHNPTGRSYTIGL
T1 sequence (Q9BQA1 whole entry partner): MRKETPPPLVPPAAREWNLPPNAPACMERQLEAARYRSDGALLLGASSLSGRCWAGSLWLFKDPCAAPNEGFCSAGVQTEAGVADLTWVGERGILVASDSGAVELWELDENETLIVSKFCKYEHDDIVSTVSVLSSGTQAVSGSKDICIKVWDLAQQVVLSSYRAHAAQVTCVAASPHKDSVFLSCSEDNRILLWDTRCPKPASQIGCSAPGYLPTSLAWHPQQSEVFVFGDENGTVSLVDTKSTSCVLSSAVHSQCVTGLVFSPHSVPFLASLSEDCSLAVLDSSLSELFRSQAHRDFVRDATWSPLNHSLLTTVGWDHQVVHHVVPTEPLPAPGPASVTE

SMILES: CCc1cc(NC(=O)C(=O)N2C[C@@H](C)CC[C@@H]2c2ccc3sc(C4CCN(C5COC5)CC4)nc3c2)cnc1N [Compound 1224, N-(6-amino-5-ethylpyridin-3-yl)-2-((2R,53)-5-methyl-2-(2-(1-(oxetan-3-yl)piperidin-4-yl)benzo[d]thiazol-5-yl)piperidin-1-yl)-2-oxoacetamide]
- pIC50 (PRMT5 [1]): 6.30 to 7.30
- pIC50 [2, 7]: > 7.00
- pIC50 (PRMT5 [3]; read-out: No Cofactor/rel IC50): > 7.30
- pIC50 [4, 8]: > 7.00
- MTAP intact/deleted ratio [4, 9]: A (an IC50 ratio greater than or equal to 10 fold)
- pIC50 [5, 10]: > 6.00
- pIC50 (PRMT5 [6]): > 7.30

SMILES: CCc1cc(NC(=O)C(=O)N2C[C@@H](C)CC[C@@H]2c2ccc3sc(C4CCN(C5CC5)CC4)nc3c2)cnc1N [Compound 1330, N-(6-amino-5-ethylpyridin-3-yl)-2-((2R,5S)-2-(2-(1-cyclopropylpiperidin-4-yl)benzo[d]thiazol-5-yl)-5-methylpiperidin-1-yl)-2-oxoacetamide]
- pIC50 (PRMT5 [1]): > 7.30
- pIC50 [2, 7]: > 7.00
- pIC50 (PRMT5 [3]; [11]): > 7.30
- pIC50 [4, 12]: > 7.00
- MTAP intact/deleted ratio [4, 13]: A (an IC50 ratio greater than or equal to 10 fold)
- pIC50 ([5]; Homo sapiens, HAP1, viability, HAP1 MTAP-deleted cell line): > 6.00
- pIC50 (PRMT5 [6]): > 7.30

SMILES: CC(C)c1cc(NC(=O)C(=O)N2C[C@@H](C)CC[C@@H]2c2ccc(F)cc2)cnc1N [Compound 993, N-(6-amino-5-isopropyl-3-pyridyl)-2-[(2R,5S)-2-(4-fluorophenyl)-5-methyl-1-piperidyl]-2-oxo-acetamide]
- pIC50 (PRMT5 [1]): 6.30 to 7.30
- pIC50 [2, 7]: < 6.00
- pIC50 (PRMT5 [3]; read-out: No Cofactor/rel IC50): > 7.30
- pIC50 [4, 12]: 6.00 to 7.00
- MTAP intact/deleted ratio [4, 13]: A (an IC50 ratio greater than or equal to 10 fold)
- pIC50 [5, 10]: 5.00 to 6.00
- pIC50 (PRMT5 [6]): > 7.30

SMILES: CNC(=O)c1ccc([C@@H]2CC[C@@H](C)CN2C(=O)C(=O)Nc2cnc(OC)c(C(N)=O)c2)s1 (single isomer, unassigned) [Compound 843]
- pIC50 (PRMT5 [1]): < 6.30
- pIC50 [2, 7]: < 6.00
- pIC50 (PRMT5 [3]; read-out: No Cofactor/rel IC50): < 6.30
- pIC50 [4, 8]: < 6.00
- MTAP intact/deleted ratio [4, 13]: B (an IC50 ratio greater than or equal to 3 fold but lower than 10 fold)
- pIC50 ([5]; Homo sapiens, HAP1, viability assay, HAP1 MTAP-deleted): < 5.00
- pIC50 (PRMT5 [6]): < 6.30

SMILES: CCc1cc(NC(=O)C(=O)N2C[C@@H](C)CC[C@@H]2c2cc(Cl)cc(Cl)c2)cnc1N (single isomer, unassigned) [Compound 951]
- pIC50 (PRMT5 [1]): 6.30 to 7.30
- pIC50 [2, 7]: < 6.00
- pIC50 (PRMT5 [3]; read-out: No Cofactor/rel IC50): > 7.30
- pIC50 [4, 12]: > 7.00
- MTAP intact/deleted ratio [4, 13]: A (an IC50 ratio greater than or equal to 10 fold)
- pIC50 [5, 10]: 5.00 to 6.00
- pIC50 (PRMT5 [6]): > 7.30

SMILES: CC(=O)N1CCC(c2cccc(C3CCCCN3C(=O)C(=O)Nc3cncc(C)c3)c2)CC1 (single isomer, unassigned) [Compound 78]
- pIC50 (PRMT5 [1]): < 6.30
- pIC50 ([2]; SDMA in-cell western): < 6.00
- pIC50 (PRMT5 [3]; [11]): < 6.30
- MTAP intact/deleted ratio [4, 13]: C (an IC50 ratio of less than 3 fold)
- pIC50 ([4]; SDMA in-cell western, read-out: HAP 1 MTAP deleted IC50): < 6.00
- pIC50 ([5]; viability assay, MTAP-deleted cell line): < 5.00
- pIC50 (PRMT5 [6]): 6.30 to 7.30

SMILES: CCc1cc(NC(=O)C(=O)N2C[C@@H](C)CC[C@@H]2c2ccc(N3CCN(C)C[C@@H]3C)nc2)cnc1N (racemic) [Compound 1099, N-(6-amino-5-ethyl-3-pyridyl)-2-[(2R,5S)-2-[6-[(2S)-2,4-dimethylpiperazin-1-yl]-3-pyridyl]-5-methyl-1-piperidyl]-2-oxo-acetamide]
- pIC50 (PRMT5 [1]): 6.30 to 7.30
- pIC50 [2, 7]: 6.00 to 7.00
- pIC50 (PRMT5 [3]; read-out: No Cofactor/rel IC50): > 7.30
- pIC50 [4, 8]: > 7.00
- MTAP intact/deleted ratio [4, 9]: A (an IC50 ratio greater than or equal to 10 fold)
- pIC50 [5, 10]: > 6.00
- pIC50 (PRMT5 [6]): > 7.30

SMILES: COc1ccccc1[C@@H]1CC[C@@H](C)CN1C(=O)C(=O)Nc1cncc(C(N)=O)c1 (racemic) [Compound 558, 5-[[2-[(2S,5R)-2-(2-Methoxyphenyl)-5-methyl-1-piperidyl]-2-oxo-acetyl]amino]pyridine-3-carboxamide]
- pIC50 (PRMT5 [1]): 6.30 to 7.30
- pIC50 [2, 7]: < 6.00
- pIC50 (PRMT5 [3]; read-out: No Cofactor/rel IC50): < 6.30
- pIC50 [4, 12]: 6.00 to 7.00
- MTAP intact/deleted ratio [4, 13]: A (an IC50 ratio greater than or equal to 10 fold)
- pIC50 ([5]; Homo sapiens, HAP1, viability IC50, MTAP-deleted cell line): < 5.00
- pIC50 (PRMT5 [6]): 6.30 to 7.30
